Patent publication US10939681B2, “Tetrazolinone compound and use thereof” (SUMITOMO CHEMICAL COMPANY, LIMITED, priority 2017, dated 2021)

Test system: diamondback moth (Plutella xylostella)
Test: Control test against diamondback moth (Plutella xylostella), cabbage leaf spray
Format: in vivo
Settings: 500 ppm active ingredient, sprayed on cabbage seedlings 20 mL/seedling, 2nd instar larvae, after 5 days, 25° C.
Method: Next, a Test Example is used to show efficacy of the Present compound against pests. In the following Test Example, the test was carried out at 25° C. The Present compound was formulated according to the process described in the Formulation Example 6 to obtain a formulation, and water containing a spreader (0.03% by volume) was added thereto to prepare a diluted solution containing 500 ppm of the active ingredient. Cabbage (Brassicae oleracea) seedlings (on the developmental stage of the second to third true leaf) were planted in a container, and said diluted solution was sprayed into the leaves of the seedlings at a ratio of 20 mL/seedling. Thereafter, the stems and leaves of the seedlings were cut out, and the leaves were placed into a container lined with a filter paper. Approximately five the 2nd instar larvae of diamondback moth (Plutella xylostella) were released into the container. After 5 days, the number of the surviving insects was examined, and the controlling value was calculated by the following equation. […] Controlling value (%)={1−(Cb×Tai)/(Cai×Tb)}×100 wherein the symbols in the equation represent the following meanings. […]

## Cc1cccc(-n2nnn(C)c2=O)c1Cn1nnn(-c2cccc(C)c2COc2ccn(-c3ccc(Cl)cc3)n2)c1=O [Present compound]
  Controlling value (control effects): 100%
